Values after ≈ are worked out from the molar mass of the structure shown. Like-named read-outs stand apart in the source and are kept apart here.
Tests used:
Assay in all cases: Heart Infusion Agar Dilution Method (MIC)
Assay type in all cases: cell-based
Escherichia coli NIHJC-2 = settings: NIHJC2, pH 7.2
Proteus mirabilis 1287 = system: Proteus mirabilis 1287
Escherichia coli Juhl = settings: pH 7.2
[1] = system: Klebsiella pneumoniae Y-60; settings: Y60, pH 7.2
[2] = system: Staphylococcus epidermidis; settings: pH 7.2
[3] = system: Staphylococcus aureus 209-P; settings: pH 7.2
Serratia marcescens T-55 = settings: T55, pH 7.2
[4] = system: Klebsiella pneumoniae 8045; settings: pH 7.2
Serratia marcescens T-26 = settings: T26, pH 7.2
[5] = Staphylococcus aureus 209-P, Heart Infusion Agar Dilution Method, read-out: MIC

## CC1=C(C(=O)O)N2C(=O)[C@@H](NC(=O)[C@H](N)c3ccccc3)[C@H]2SC1 [Cephalexin]
Escherichia coli NIHJC-2
  MIC: 12.5 µg/mL (≈ 36 µM)
Proteus mirabilis 1287; Proteus mirabilis, 1287, pH 7.2
  MIC: 25 µg/mL (≈ 72 µM)
Escherichia coli Juhl
  MIC: 12.5 µg/mL (≈ 36 µM)
[1]
  MIC: 50 µg/mL (≈ 144 µM)
[2]
  MIC: 3.12 µg/mL (≈ 8.98 µM)
[3]; Staphylococcus aureus, 209P
  MIC: 0.2 µg/mL (≈ 0.576 µM)
Serratia marcescens T-55
  MIC: 50 µg/mL (≈ 144 µM)

## Cc1nnc(SCC2=C(C(=O)O)N3C(=O)[C@@H](NC(=O)Cn4cnnn4)[C@H]3SC2)s1 [Cefazolin]
Escherichia coli NIHJC-2
  MIC: 1.56 µg/mL (≈ 3.43 µM)
Escherichia coli Juhl
  MIC: 1.56 µg/mL (≈ 3.43 µM)
[3]; [5]
  MIC: ≤ 0.05 µg/mL

## N[C@@H](C(=O)N[C@@H]1C(=O)N2C(C(=O)O)=C(Cl)CC[C@H]12)c1ccccc1 [Reference Example 2, (6R, 7S) 7-(R)-2-phenylglycinamido3-chloro-1-azabicyclo[4,2,0]oct-2-en-8-on-2-carboxylic acid]
[4]
  MIC: 0.2 µg/mL (≈ 0.572 µM)
Serratia marcescens T-26
  MIC: > 100 µg/mL
Proteus mirabilis 1287; Proteus mirabilis 1287, Heart Infusion Agar Dilution Method, pH 7.2, read-out: MIC
  MIC: 3.12 µg/mL (≈ 8.92 µM)
[3]; [5]
  MIC: 0.1 µg/mL (≈ 0.286 µM)
